Test results: patent publication US4315003A, “Compositions containing azo compounds and use thereof for therapeutic treatment” (priority 1979, dated 1982)

Assays:
rats [1] = assay: Diuretic action in rats (urinary volume during 5 hours after oral administration); type: in vivo, rat (male, Wistar strain); conditions: urinary volume 5 hours, control = 100%
Protocol: A group of 5 male rats of Wistar strain having each a body weight ranging from 180 to 200 grams was used for each test compound. The rats were fasted overnight and then abstained from water two hours before the administration of the test compound. The test compound was prepared by suspending the compound in a 5% arabic gum-saline solution and administered orally to the rats in the amount of 25 ml per kg. of body weight.
The urine was collected during 5 hours after administration and its volume was measured. The diuretic actions of the test compounds were calculated as the urinary volume of the control group where no test compound was administered being as 100%.

rats [2] = assay: Hypertensive action in rats (blood pressure, oral, without anesthesia); type: in vivo, rat
Protocol: Hypertensive Action in Rats
A suspension of the test compound in a 5% arabic gum solution was orally to rats catheterized before more than 24 hours according to Mizokami et al. (Nihon Taishitsugaku Zasshi, 32, p.p. 59-63 (1969)).

[3] = tested on: isolated guinea-pig atria; assay: Cardiotropic action in isolated guinea-pig atria; parameters: species or system guinea-pig (male); conditions: Cavia porcellus, 30° C.; for inhibition at 1 µg/mL / activation at 1 µg/mL: 1 μg/ml; for inhibition at 3 µg/mL / activation at 3 µg/mL: 3 μg/ml
Protocol: Cardiotropic Action in Isolated Guinea-Pig Atria
The isolated atria from male Guinea-Pigs weighing about 350 grams were hanged in an organ bath filled with a Krebs-Henselite's solution and bubbled with a mixed gas (5% CO2 and 95% O2) at 30° C. A solution of the test compound in dimethylsulfoxide was added to the bath. The contractile force and beats were then measured and calibrated into a percentage increase of the contractile force and a percentage decrease of the beats.

rabbit eye mucosa = assay: Therapeutic action on hyperemia of rabbit eye mucosa (induced by 0.03 N sodium hydroxide); type: in vivo, rabbit (male Japanese albino); parameters: key: conjunctival erythema score per Fukui and Ikemoto standards; conditions: for Average Erythema Score After Treatment: 50 μl instilled, before treatment 1, solvent alone 1; for Average Erythema Score Before Treatment: baseline
Protocol: Therapeutic Action on Hyperemia of Rabbit Eye Mucosa
100 μl of 0.03 N sodium hydroxide was instillated into one eye to induce hyperemia in male Japanese albino rabbits weighting about 3 Kg. A group of 3 rabbits was used for test, which were caused an erythema score 1 on their conjunctive based on the standards of Fukui and Ikemoto (Gendai-no-Rinshao, 4, pp. 277 (1970)). The test compound was dissolved in a 10% NIKKOL HCO-60 (trademark: Nikko Chemical Co., Ltd.) and instilled to the test rabbit at a rate of 50 μl.

Acute toxicity in mice = conditions: mouse, in vivo, deaths for seven days
Protocol: A group of 10 male mice of ddY strain weighing about 25 grams was administered orally or intraperitoneally with a suspension of the test compound in a 5% arabic gum solution in the amount of 10 ml per kg. of body weight. The LD50 values were calculated by means of the Wilcoxon-Litchfield method on the number of mice died for seven days after administration.

Solubility = type: physicochemical
[4] = read-out: Percentage Decrease in Beats
[5] = read-out: Percentage Increase of Contractile Force

| SMILES | Diuretic Activity (rats [1]; 5.0 mg/kg) [%] | Diuretic Activity (rats [1]; 10.0 mg/kg) [%] | Diuretic Activity (rats [1]; 20.0 mg/kg) [%] | Average Erythema Score Before Treatment (rabbit eye mucosa) | LD50 at 168 h (Acute toxicity in mice; ip) [mg/kg] | LD50 at 168 h (Acute toxicity in mice; po, orally) [mg/kg] | Solubility in acetone (Solubility) | Solubility in hexane (Solubility) | Solubility in methanol (Solubility) | Solubility in water (Solubility) | further results |
| --- | --- | --- | --- | --- | --- | --- | --- | --- | --- | --- | --- |
| NS(=O)(=O)c1cc(C(=O)O)c(NCc2ccco2)cc1Cl [furosemide, reference compound] | 113 | 188 | 292 | – | – | – | – | – | – | – | – |
| COc1ccc(F)cc1N=Nc1ncc[nH]1 [Compound B, 2-[(2-methoxy-5-fluorophenyl)azo]-1H-imidazole] | – | – | – | 1 | 322 | 462 | readily soluble | less soluble | readily soluble | less soluble | Diuretic Activity (rats [1]; 1.0 mg/kg): 154%; Diuretic Activity (rats [1]; 2.0 mg/kg): 275%; Variation in Blood Pressures, Duration Period (rats [2]; 2 mg/kg): 65 min; Variation in Blood Pressures, Percentage Increase (rats [2]; 2 mg/kg): 42%; inhibition at 1 µg/mL [3, 4]: 2.3%; activation at 1 µg/mL [3, 5]: 11.5%; Average Erythema Score After Treatment (rabbit eye mucosa; 0.05%): 0.33 |
| COc1ccc(I)cc1N=Nc1ncc[nH]1 [Compound D] | 138 | 183 | – | 1 | > 1000 | > 1500 | readily soluble | sparingly soluble | readily soluble | sparingly soluble | Variation in Blood Pressures, Duration Period (rats [2]; 5 mg/kg): 50 min; Variation in Blood Pressures, Percentage Increase (rats [2]; 5 mg/kg): 35%; inhibition at 3 µg/mL [3, 4]: 3.6%; activation at 3 µg/mL [3, 5]: 6.9%; Average Erythema Score After Treatment (rabbit eye mucosa; 0.2%): 0.5 |
| COc1ccccc1N=Nc1ncc[nH]1 [Compound E, 2-[(2-methoxyphenyl)azo]-1H-imidazole] | – | 175 | 206 | 1 | 630 | 1010 | readily soluble | sparingly soluble | readily soluble | sparingly soluble | Variation in Blood Pressures, Duration Period (rats [2]; 10 mg/kg): 85 min; Variation in Blood Pressures, Percentage Increase (rats [2]; 10 mg/kg): 52%; inhibition at 10 µg/mL ([3]; 10 μg/ml, read-out: Percentage Decrease in Beats): 2.2%; activation at 10 µg/mL ([3]; 10 μg/ml, read-out: Percentage Increase of Contractile Force): 5.7%; Average Erythema Score After Treatment (rabbit eye mucosa; 0.1%): 0.5 |
| COc1ccc(Cl)cc1N=Nc1ncc[nH]1 [Compound A, 2-[(2-methoxy-5-chlorophenyl)azo]-1H-imidazole] | – | – | – | 1 | 795 | 1280 | readily soluble | less soluble | readily soluble | less soluble | Diuretic Activity (rats [1]; 0.5 mg/kg): 133%; Diuretic Activity (rats [1]; 1.0 mg/kg): 183%; Diuretic Activity (rats [1]; 2.0 mg/kg): 329%; Variation in Blood Pressures, Duration Period (rats [2]; 1 mg/kg): 55 min; Variation in Blood Pressures, Percentage Increase (rats [2]; 1 mg/kg): 49%; inhibition at 1 µg/mL [3, 4]: 5.4%; activation at 1 µg/mL [3, 5]: 15.4%; Average Erythema Score After Treatment (rabbit eye mucosa; 0.05%): 0.33 |
| COc1ccc(Br)cc1N=Nc1ncc[nH]1 [Compound C, 2-[(2-methoxy-5-bromophenyl)azo]-1H-imidazole] | 171 | 283 | – | 1 | > 1000 | > 1500 | readily soluble | sparingly soluble | readily soluble | sparingly soluble | Variation in Blood Pressures, Duration Period (rats [2]; 5 mg/kg): 70 min; Variation in Blood Pressures, Percentage Increase (rats [2]; 5 mg/kg): 40%; inhibition at 3 µg/mL [3, 4]: 4.2%; activation at 3 µg/mL [3, 5]: 7.4%; Average Erythema Score After Treatment (rabbit eye mucosa; 0.2%): 0.33 |
| Nc1nc(N)c2nc(-c3ccccc3)c(N)nc2n1 [triamterene, reference compound] | – | 192 | 242 | – | – | – | – | – | – | – | – |
